Here are results for nine compounds from patent US4937243A, “Thiol carboxylic acid derivatives and their use as colagenase inhibitors” (Beecham Group p.l.c., priority 1986, dated 1990).

By IC50 is commonly meant the concentration that inhibits the measured activity by half.

The assay has as its target T1, purified rabbit bone collagenase (Oryctolagus cuniculus, UniProt P13943).
T1 construct: from tissue; host or cells: rabbit bone
T1 sequence (P13943 99-468): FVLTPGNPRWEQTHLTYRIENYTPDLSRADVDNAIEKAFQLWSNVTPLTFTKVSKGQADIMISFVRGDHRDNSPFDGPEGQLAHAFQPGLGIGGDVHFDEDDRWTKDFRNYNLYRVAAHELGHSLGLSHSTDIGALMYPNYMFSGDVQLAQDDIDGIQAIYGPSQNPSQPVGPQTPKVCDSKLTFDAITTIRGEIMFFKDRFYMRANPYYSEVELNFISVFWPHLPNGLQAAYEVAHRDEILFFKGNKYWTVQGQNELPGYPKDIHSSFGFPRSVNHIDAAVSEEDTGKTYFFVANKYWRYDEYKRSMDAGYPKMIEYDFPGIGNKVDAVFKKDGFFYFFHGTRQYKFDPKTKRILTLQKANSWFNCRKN
As to the kind of experiment: Collagenase inhibitor assay (14C-acetylated rat skin Type I collagen as substrate). Particulars: 5-15 min preincubation at 37° C., 37° C. overnight, read-out: IC50 (amount of compound which inhibits a known amount of enzyme by 50%). It counts as biochemical. On the procedure:
The test is performed essentially as in Cawston and Barrett Anal. Biochem. 99, 340-345 (1979). Compounds for testing are dissolved in methanol and added to purified rabbit bone collagenase in buffer. After a 5-15 min incubation at 37° C., the assay tubes are cooled to 4° C. and ^14 C-acetylated rat skin Type I collagen is added. The assay tubes are incubated at 37° C. overnight. The ^14 C-collagen forms insoluble fibrils which are the substrate for the enzyme.
To terminate the assay, the assay tubes are spun at 12000 rpm for 15 min. Undigested ^14 C-collagen is pelleted, digested ^14 C-collagen is found as soluble peptides in the supernatant. A sample of the supernatant is taken for liquid scintillation counting.
On to `CNC(=O)[C@H](Cc1ccc(OC)cc1)NC(=O)C(CC(C)C)C(S)CC(=O)OC` (mixture of isomers) [2 mixture of diastereoisomers], for which the IC50 is 100 nM.

For the compound `CNC(=O)[C@H](Cc1ccc(OC)cc1)NC(=O)C(CC(C)C)C(S)CC(=O)OC` (single isomer, unassigned) [2 A], the concentration for half-maximal inhibition (IC50) fell in the range of 3.9 to 6.4 nM. As for `CNC(=O)[C@H](Cc1ccc(OC)cc1)NC(=O)C(CC(C)C)C(S)CC(=O)OC` (single isomer, unassigned) [2 B], the figure is 72 nM; as for `CNC(=O)[C@H](Cc1ccc(OC)cc1)NC(=O)C(CC(C)C)C(S)CC(=O)OCc1ccccc1` (single isomer, unassigned) [4 A], 31 nM. As for `CNC(=O)[C@H](Cc1ccc(OC)cc1)NC(=O)C(CC(C)C)C(S)CC(=O)OCc1ccccc1` (single isomer, unassigned) [4 B], the figure is 270 nM. As for `CNC(=O)[C@H](Cc1ccc(OC)cc1)NC(=O)C(CC(C)C)C(S)CC(=O)OCc1ccccc1` (single isomer, unassigned) [4 C], the half-inhibitory concentration (IC50) came to 230 nM. On to `CNC(=O)[C@H](Cc1ccc(OC)cc1)NC(=O)C(CC(C)C)C(S)CC(=O)OCc1ccccc1` (single isomer, unassigned) [4 D], for which the IC50 was found to be 12600 nM. For `CNC(=O)CC(S)C(CC(C)C)C(=O)N[C@@H](Cc1ccc(OC)cc1)C(=O)NC` (single isomer, unassigned) [8 A], the IC50 lay within 4.7 to 14 nM.

Turning to `CNC(=O)[C@H](Cc1ccccc1)NC(=O)C(CC(C)C)C(S)CC(=O)OC` (single isomer, unassigned) [10 A], the IC50 was 8.3 nM.
